Test results taken from a melting point compilation (Tetko et al.; mined from patent text by program, amines drawn as free bases though some values may be those of a salt).

Structure (SMILES) | melting point
Cc1nn(-c2ccc(C#N)c(Cl)c2)c(C)c1Cc1ccc(C(=O)NC(C)(C)C)cc1 | 135 to 136 °C
O=S(=O)(NCCO)c1ccc(-c2ccc(S(=O)(=O)NCCO)cc2)cc1 | 203 to 206 °C
COC(=O)C1=Cc2cccc(C(F)F)c2OCC1 | 97 to 99 °C
O=c1c2cc(F)c(F)cc2n(-c2cccc(F)c2)c(=O)n1OCc1ccccc1 | 179 to 181 °C
CCOC(=O)c1cnoc1-c1ccc(C(F)(F)F)cc1 | 42 to 44 °C
Cn1c2cc(Cl)ccc2c(=O)c2cccn21 | 172 to 173 °C
COCCn1nc(-c2cc(C(C)(C)C)c(O)c(C(C)(C)C)c2)c2cccnc21 | 111 to 113 °C
CC(C)NC(=NC(=O)OCc1ccccc1)N=C1NC(=O)C(=O)N1c1ccc(Cl)c(Cl)c1 | 211 °C
Cc1oc(-c2ccccc2)nc1COc1ccc(C(=O)c2ccccc2OC(C)C(=O)O)cc1 (configuration not stated) | 186 to 187 °C
CC(=O)Oc1cc(C(=O)O)cc(C(=O)O)c1 | 240 °C
CCN1C(=O)C(C)(C)C(=O)N(C)c2cc(CN(CCn3ccc4oc(C)cc4c3=O)Cc3cccnc3)ccc21 | 124 to 127 °C
COC(C(=O)Nc1cc(Cl)cc(Cl)c1)C(=O)OC(C)(C)C (configuration not stated) | 130 to 132 °C
CS(=O)(=O)Cc1cnc2ccsc2c1O | > 300 °C
CCc1cccc(CC(=O)O)c1OCCCc1cn(-c2ccc(Br)cn2)nc1C(C)C | 152 °C
ClC(Cl)=NC(Cl)(Cl)C(Cl)(Cl)N=C(Cl)Cl | 167 °C
COC(=O)c1ccc(CC(C)NCC(O)c2cccc(C(F)(F)F)c2)cc1 (configuration not stated) | 73 to 88 °C
Oc1c(F)ccc(-c2c3ccccc3c(Br)c3sc4ccccc4c23)c1F | 180 to 182 °C
O=C1NC(=O)C(CCc2ccc(O)cc2)S1 (configuration not stated) | 175 to 176 °C
COC(=O)CN(c1cc2cc(OC)c(=O)oc2cc1OCc1ccccc1)S(N)(=O)=O | 178 to 179 °C
O=C(c1ccccc1)c1cc2c(cc1O)C(C(=O)O)CC2 (configuration not stated) | 185 to 187 °C
CN(C)Cc1ccc2cc(NC(=O)c3ccc(-c4ccccc4)cc3)ccc2n1 | 191 to 194 °C
Nc1nc2cc(Cl)c(Cl)cc2nc1-c1ccco1 | 222 to 223 °C
O=C(c1cccs1)c1cnn2c(-c3cccc(-c4nnnn4CC4CCC4)c3)ccnc12 | 204 °C
COc1ccc(NC(=O)N[C@H]2C[C@@](N)(C(=O)O)[C@@H]3[C@@H](C(=O)O)[C@@H]32)cc1 (relative stereo) | > 250 °C
CC(C)(C)C(=O)Nc1ccc(Cl)cc1 | 149 to 150 °C
O=C(O)CCC12CCC(=O)N1C(=O)CC2 | 179 to 181 °C

Structure (SMILES) | melting point
COc1cnc(C(=O)Cc2c(Cl)cncc2Cl)cc1OC1CCCC1 | 132 °C
CC1(O)CC(=O)OC(CCc2ccccc2OCc2ccccc2)C1Br (configuration not stated) | 122 to 125 °C
Nc1c2c(nc3c(O)cccc13)CCC2 | 187 to 188 °C
CC(C)(C)C(=O)Nc1ccc(F)cc1C1(O)CCN(C/C=C/c2ccc(Cl)cc2)CC1 | 172 to 173 °C
C(=C\c1cccs1)/c1nc(COc2ccc(CCCn3ccnc3)cc2)co1 | 131 to 132 °C
CN(C)CCc1cccc(OCCNc2nc(N)nn2C)c1 | 72 °C
CNC(=O)n1sc(SCc2ccc(Cl)cc2)nc1=O | 140 °C
CC1CC(=O)N(c2ccccn2)N=C1c1ccc(OC2CCN(C(=O)OC(C)(C)C)CC2)cc1 (configuration not stated) | 164 to 166 °C
CCCOc1nc(O)ns1 | 92 °C
O=C1CCCc2nc3ccccc3c(NCc3ccc(F)cc3)c21 | 158 to 159 °C
COc1ccc(C(=O)Nc2ccccc2)cc1NS(=O)(=O)c1ccc(F)cc1F | 198 to 200 °C
COC(=O)C1CN1C(c1ccccc1)(c1ccccc1)c1ccccc1 (configuration not stated) | 127 to 128 °C
CCCCOc1ccc2c(c1)C(NS(C)(=O)=O)CC(C)(C)O2 (configuration not stated) | 123 to 127 °C
CCCc1nc(C(=O)C(C)(C)C)c(C#N)[nH]1 | 176 to 178 °C
CN1NC(=O)CC1c1ccccc1 (configuration not stated) | 160 to 161 °C
CON1CCN2C(=O)C(c3c(C)cc(C)cc3C)C(=O)N2CC1 | 229 to 230 °C
CCCCCC(=O)OC(C)c1ccc(-c2ccc(C(=O)O)cc2)cc1 (single isomer, unassigned; (+)) | 133 to 135 °C
CCOc1ccc(N)cc1-c1nc2cccnc2c(=O)[nH]1 | 208 to 210 °C
CC(=O)N1CCN=C1Nc1cc(C)nn1-c1ccc(Cl)c(Cl)c1 | 156 to 157 °C
O=C(COc1ccc(Cl)c2c(=O)c3ccccc3sc12)c1ccccc1 | 174 to 176 °C
CCCn1c(=O)c2[nH]c(/C=C/c3cc(OC)c(OC)cc3Br)nc2n(CCC)c1=O | 248 to 250 °C
CC(C)N(CCOc1ccccc1NC(=O)c1cccc2[nH]ccc12)C(C)C | 145 °C
CS(=O)(=O)Oc1ccc(N)c(OCCBr)c1 | 69 to 70 °C
Cn1c(COc2ccc(C=O)cc2)nc2cccnc21 | 124 to 125 °C
NC(=O)CCSSSSCCC(N)=O | 127 °C
N#CC(=Cc1cc(O)c(O)c(C#N)c1)C(=O)Nc1cccc(Cl)c1 | 236 to 240 °C

Structure (SMILES) | melting point
CCOc1cn(C)cc(-c2cccc(C(F)(F)F)c2)c1=O | 131 to 133 °C
CCCN1N=C2C(=Cc3ccccc3)CSCC2C1c1ccccc1 (configuration not stated) | 111 to 120 °C
Cc1nc(Cl)c(C#N)nc1C | 83 to 85 °C
CC(=O)N(C(C)=O)c1ccc2c(c1)C(C(Cl)(Cl)Cl)OC(C(Cl)(Cl)Cl)O2 (configuration not stated) | 147 to 148 °C
Cc1cc(C2=NN(C(=S)Cl)[C@H](C)Cc3cc4c(cc32)OCO4)ccc1[N+](=O)[O-] | 193 to 196 °C
Cc1cc(C)cc(S(=O)(=O)c2nnc(C(F)(F)F)s2)c1 | 110 °C
CCOc1cccc(C)c1N(C(=O)n1nc(OCC)n(C)c1=O)S(N)(=O)=O | 147 °C
COCC1COc2cc3ncnc(Nc4cccc(I)c4)c3cc2O1 (configuration not stated) | 175 to 177 °C
Cc1cc(=O)n(-c2ccc(Cl)cc2F)c(=O)[nH]1 | > 220 °C
O=C(NCc1ccc(Cl)cc1)c1cn(Cc2cccc(F)c2)c2sc(CN3CCOCC3)cc2c1=O | 214 to 215 °C
O=C(NCCCCSc1ccncc1)c1ccccc1O | 83 to 85 °C
CCCC12CCC(=O)C=C1c1c(cc(OCC(=O)OCC)c(Cl)c1Cl)C2OC(C)=O (configuration not stated) | 128 to 130 °C
Cc1nc(C)c(-c2ccc(C#N)cc2)s1 | 108 to 110 °C
CCCCN1C=CC(N2CCC(F)(c3ccccc3)C(Cl)C2=O)=CC1 (configuration not stated) | 137 °C
CCCc1nc2c(N)nc3cc(-c4ccccc4)ccc3c2n1CCCON=C(C)C | 164 to 165 °C
Cn1c(NCCOS(C)(=O)=O)cc(=O)n(C)c1=O | 169 to 170 °C
CCCCC1C=C(N)c2ncccc2N1CC(C)(C)O (configuration not stated) | 177 to 179 °C
COc1cccc2c1C13CCN(C(=O)C4CC4)C(C2)C1(O)CCC(=O)C3 (configuration not stated) | 223 to 225 °C
CC(=O)Oc1cc(CCc2ccccc2)cc(OC(C)=O)c1 | 48 to 48.5 °C
O=S1N=C(NCCCOc2cccc(CN3CCCCC3)c2)C(NCc2ccccn2)=N1 (configuration not stated) | 140 to 143 °C
O=C(NCc1cc(Br)cc2[nH]c(=O)c(=O)[nH]c12)C(O)c1ccccc1 (configuration not stated) | > 280 °C
Cc1oc(-c2ccc(C(C)C)cc2)nc1CCOc1ccc(C[C@H](OCC(F)(F)F)C(=O)O)c2sccc12 | 181 to 182 °C
CC(C)(C)OC(=O)N1CCN(C(=O)CI)CC1 | 69 to 71 °C
CN(C)CCNc1cc(Oc2ccc3c(C(=O)Nc4cc(C(C)(C)C)nn4-c4ccc(F)cc4)cccc3c2)ncn1 | 153 to 155 °C
Cc1ccc2c(c1)oc1c(C(=O)NC3CCCCC3)nn(-c3ccc(Cl)cc3Cl)c12 | 140 to 142 °C
CC(=O)Oc1ccc(-c2cnc(-c3ccccc3)nc2Cl)cc1OC(C)=O | 152 to 153 °C

Structure (SMILES) | melting point
CCOC(=O)c1cn(C2CSC2)c2nc(Cl)c(F)cc2c1=O | 157 to 161 °C
O=CN[C@H]1CC[C@H](CCN2CCN(c3nccc4c3CCO4)CC2)CC1 | 170 °C
COC(=O)c1c(O)c2cc(Cl)ccc2n1-c1ccccc1 | 170 to 173 °C
CCCCCCC(CC(=O)Nc1cc(C(N)=O)ccc1C(C)(C)C)c1ccc(OC)cc1OC (configuration not stated) | 152 to 153 °C
COCc1cc(OCc2ccccc2)c2nc(C)c(C)n2c1 | 107 °C
CCOC(=O)/C=C/c1ccc(Cl)c(Cl)n1 | 102 to 103 °C
O=C(O)CS(=O)(=O)Nc1ccc(F)c(C(F)(F)F)c1 | 138 to 140 °C
CCOC(=O)C(=O)Nc1ccc2c(c1)OCC(=O)N2 | 239 to 240 °C
CCNC(=O)c1c(Cl)cccc1NC(C)(C)C | 139 to 140 °C
COc1cc2cncnc2cc1OC | 235 to 237 °C
CCC(=O)Oc1ccc2c(c1)C(=O)N(C(=O)CC)C(C(Cl)(Cl)Cl)O2 (configuration not stated) | 92 to 94 °C
COc1ccc(C(=O)C=Cc2cccnc2)cc1 | 113 to 114 °C
CN1CCN(c2cc(F)cc3c(=O)cc(C(=O)Nc4ccc(N5CCN(C(=O)O)CC5)cc4)oc23)CC1 | 236 to 238 °C
CC(C)c1cc(C(=O)Nc2ccc(C(=O)O)cc2)[nH]c1C(C)C | 230 °C
CN1CCN(CNc2nc(OCc3ccc(F)cc3)ncc2F)CC1 | 125 to 126 °C
O=C(Nc1n[nH]c(=S)s1)NC(Cc1ccccc1)C(=O)NCc1ccncc1 (configuration not stated) | 208 to 211 °C
NC(=O)Cc1ccc2c(c1)sc1ccc(Cl)cc12 | 92 to 99 °C
C#Cc1c(NC)c(F)cc2c(=O)c(C(=O)O)cn(-c3cc(N)c(F)cc3F)c12 | 208 to 209 °C
COc1ccc(N2CCN(c3c(C)c(C)c4c(c3C)CC(C)(CN3CCC5(CC3)OCCO5)O4)CC2)cc1 (configuration not stated) | 165 to 167 °C
COc1c(C)cc(N)c(CS(=O)c2nc3ccccc3[nH]2)c1C (configuration not stated) | 150 to 155 °C
O=C(c1c(C2CC2)nn2ccccc12)C1CC1 | 102 to 104 °C
CN(C(=O)COc1nnc(Cl)s1)c1ccccc1 | 101 °C
O=C(NCCCN1CCOCC1)c1ccccc1C(c1ccc(O)cc1)c1ccc(O)cc1 | 120 to 122 °C
CCC(C)(O)CCC1C(C)(OC(C)=O)CCC2C(C)(C)CCCC21C (configuration not stated) | 92 to 94 °C
